Measured values from paper PMC12559140 (Molecular Neurobiology, 2025).
“And” between values parts separate entries of the source, which are not always exact repeats. Equal values may be shown once. “Also recorded” adds a separate entry of the source. Read-outs that look alike come from different tables or passages of the source.

Key:
SH-SY5Y cells = details: cited from earlier work
cleaved caspase-3 = test: Cleaved caspase-3 ELISA in H2O2-treated cells; assay type: cell-based, human; details: 250 μM H2O2 alone (vs untreated) or with CNI (vs H2O2 alone), 24 h, n = 2
Protocol: The quantification of cleaved caspase-3 levels in cell lysates was performed using a commercially available human cleaved caspase-3 ELISA kit (E6970HU, BT Lab), according to the manufacturer’s instructions. SH-SY5Y cells were seeded in collagen-coated 6-well plates (1.0 × 10^5 cell/well) and differentiated. Cells were exposed to 250 μM H2O2 in the presence or absence of CNI compounds for 24 h. Following treatment, cells were collected, diluted with PBS, and destroyed by multiple freeze–thaw cycles, both treated and untreated. The levels of cleaved caspase-3 in the cell lysates were measured in the order recommended by the manufacturer. The BCA assay (44,132, Expedeon) was used to compare the total protein contents in treated and untreated cells.

AChE [1] = biological target: T1, AChE (Homo sapiens, UniProt P22303); test: Cellular AChE activity (ELISA); assay type: cell-based; parameters: To extract the total protein from the treated (d)-SH-SY5Y cells; endogenous in cells; host or cells: differentiated SH-SY5Y (human neuroblastoma); details: (d)-SH-SY5Y
Protocol: SH-SY5Y cells were cultivated on collagen-coated 6-well plates at a density of 1.0 × 10^5 cells/well. […] To extract the total protein from the treated (d)-SH-SY5Y cells, the cultures were rinsed twice with cold phosphate-buffered saline (PBS), followed by scraping to collect the cells. The resulting cell suspension was transferred to 1.5 mL tubes, which were then centrifuged at 10,000 × g for 5 min at 4 °C. The supernatant was carefully discarded, and the cell pellets were lysed using RIPA buffer. The total protein concentration present in the extracts was quantified using the Bicinchoninic Acid (BCA) assay. Any remaining protein was stored at − 80 °C until the time of enzymatic analysis. Relative AChE activity was determined using an equal amount of total protein and employing an Enzyme-Linked Immunosorbent Assay (ELISA) (Human AchE (Acetylcholinesterase) Kit, ELK4614-96 T), following the manufacturer’s guidelines.

AChE mRNA = AChE mRNA expression by qRT-PCR; assay type: cell-based; details: 250 µM H2O2 alone (vs control) or with 0.1 µM drug (vs H2O2 alone), 24 h, 2^−ΔΔCt, GAPDH
Protocol: SH-SY5Y cells were cultivated on collagen-coated 6-well plates at a density of 1.0 × 10^5 cells/well. […]. The purity and concentration of the isolated RNA were assessed by measuring absorbance at 260 nm and 280 nm. cDNA was synthesized from 1 μg of total RNA using the OneScript Plus cDNA Synthesis Kit (G236, Abmgood). Subsequent to cDNA synthesis, quantitative real-time PCR (qRT-PCR) was conducted on a Roche Light Cycler 96 real-time PCR System utilizing the SYBR Green PCR Kit BlasTaq 2X qPCR MasterMix (G891, Abmgood) according to established protocols. All amplification reactions for each sample were performed in triplicate, and the experiments were repeated at least three times. The relative mRNA expression levels were quantified using the 2^−ΔΔCt method, normalizing the data against glyceraldehyde-3-phosphate dehydrogenase (GAPDH). Primer sequences are listed as follows: GAPDH forward, 5′-[…]-3′ and reverse, 5′-[…]-3′; AChE forward, 5′-[…]-3′ and reverse, 5′-[…]-3′.

(d)-SH-SY5Y cells [2] = test: Cell viability (MTT), H2O2 alone or co-treatment with H2O2 and drugs; details: for cell viability compared to H2O2 alone: 10 μM drug + 250 µM H2O2, 24 h
Protocol: (§1) Cells were cultured under standard conditions and used for experiments between passages 5 and 20 to maintain phenotypic consistency and avoid passage-related variability. To ensure the validity of the experimental data and avoid confounding effects, the cell line was routinely tested for Mycoplasma contamination using a PCR-based Mycoplasma detection kit (MycoFluor™ Mycoplasma Detection Kit, Thermo Fisher Scientific). […] Differentiated cells were plated at 1.0 × 10^4 cell/cm^2 confluency and treated with retinoic acid (RA) (R2625-50MG, Sigma Aldrich) at a 10 µM concentration in DMEM/F12 1% FBS for 6 days with RA pulses on every other day. The (d)-SH-SY5Y cells with acquired neuronal properties were used in our experiments involving toxin application and drug treatments.
(§2) (d)-SH-SY5Y cells were cultured in collagen-coated 96-well plates (1.0 × 10^4 cell/well). […] The appropriate dose and time for H2O2 used in our study were determined according to the findings obtained in a preliminary study. Data are expressed as a percentage of cell viability compared to control cultures.

(d)-SH-SY5Y cells [3] = test: Neurite analysis by microscopy (NeuronJ/ImageJ); assay type: cell-based, human; details: 250 µM H2O2 alone or with 0.1 µM drug
Protocol: SH-SY5Y cells were cultivated on collagen-coated 6-well plates at a density of 1.0 × 10^5 cells/well. Following the differentiation and treatments, microscopic examination of the cell groups was assessed using an inverted microscope (Zeiss Axio) at × 20 objective. Images were taken with multiple independent images for an individual treatment. Images were analyzed for neurite lengths and the number of homogeneous neurites per cell by NeuronJ of ImageJ software; soma size was determined by the Neurphology plugin of ImageJ [46]. Cells with cell extensions longer than twice the cell body diameter were considered neurite-bearing cells. 100 cells were counted from 10 different areas selected to determine neurite density (number of neurites per cell) and neurite length for each sample. The data were expressed as the mean ± SEM from three independent experiments.

AChE [4] = biological target: T1, AChE; test: biochemical
Protocol: The inhibition of AChE activity in vitro was evaluated following the methodology outlined by Ellman et al., with some modifications implemented. […] The enzyme activity was expressed as a percentage relative to a control assay conducted without any inhibitor. The percentage inhibition of AChE activity was determined by comparing the absorbance values with those of the negative control, using the following equation:
AChE inhibition % = ((A0 − A1)/A0) × 100.
In this equation, A0 represents the absorbance of the control lacking the sample, while A1 indicates the absorbance of the sample tested.
Dose–response curves were generated and analyzed using GraphPad Prism version 8.0, applying a sigmoidal dose–response model with variable slope (four-parameter logistic regression). IC50 values were derived from the fitted curves and are expressed in micromolar (µM).

(d)-SH-SY5Y cells [5] = test: Cell viability (MTT), drugs alone; details: 0.01–10 μM, (d)-SH-SY5Y, no oxidative stress
Protocol: as §1, §2

[6] = Cell viability (MTT), drugs alone; details: human
Protocol: as §1, §2

[7] = 0.1 μM drug + 250 µM H2O2, 24 h, vs H2O2 alone

T1 sequence (P22303 32-614): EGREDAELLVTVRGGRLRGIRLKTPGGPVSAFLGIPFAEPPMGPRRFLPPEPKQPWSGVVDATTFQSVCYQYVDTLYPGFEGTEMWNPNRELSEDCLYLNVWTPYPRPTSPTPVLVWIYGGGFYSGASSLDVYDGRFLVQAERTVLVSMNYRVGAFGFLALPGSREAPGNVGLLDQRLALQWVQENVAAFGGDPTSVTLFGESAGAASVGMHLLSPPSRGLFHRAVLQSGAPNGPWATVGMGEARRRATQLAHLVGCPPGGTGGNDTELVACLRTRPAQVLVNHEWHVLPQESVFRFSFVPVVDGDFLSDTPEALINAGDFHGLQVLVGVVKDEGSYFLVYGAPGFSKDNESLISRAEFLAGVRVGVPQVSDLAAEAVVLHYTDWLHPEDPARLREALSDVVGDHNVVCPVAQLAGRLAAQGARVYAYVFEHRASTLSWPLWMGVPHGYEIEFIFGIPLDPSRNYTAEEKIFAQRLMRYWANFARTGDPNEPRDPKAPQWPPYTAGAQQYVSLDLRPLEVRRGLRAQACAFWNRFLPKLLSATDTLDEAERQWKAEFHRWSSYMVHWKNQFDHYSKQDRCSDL

| Compound | caspase-3 levels (cleaved caspase-3) | AChE mRNA expression (AChE mRNA) | Neurite index (neurite/cell) ((d)-SH-SY5Y cells [3]) | Neurite length ((d)-SH-SY5Y cells [3]) | IC50 (AChE [4]) [µM] | protective effect on cell viability against H2O2 ((d)-SH-SY5Y cells [2]; [7]) | cell viability compared to H2O2 alone ((d)-SH-SY5Y cells [2]) | viability at 24 h, 1 µM [6] [%] | viability at 24 h, 10 µM [6] [%] | further results |
| --- | --- | --- | --- | --- | --- | --- | --- | --- | --- | --- |
| COc1ccc2c3c1O[C@H]1C[C@@H](O)C=C[C@@]31CCN(C)C2 [Gal, Galantamine] |  |  |  |  |  |  |  |  |  | reduction in viability (SH-SY5Y cells; 1.25 mg/mL): 17%; CC50 (SH-SY5Y cells): ~5000 µM; concentrations at which cell viability remained comparable to controls (SH-SY5Y cells): up to 10 μM; concentrations with significant reductions in viability (SH-SY5Y cells): ≥ 100 µM; concentrations with no cytotoxic effect (SH-SY5Y cells; differentiated SH-SY5Y cells): up to 50 μM |
| OO [H2O2] | significant increase in caspase-3 levels | significant upregulation of AChE mRNA expression | 0.8 ± 0.2 neurite/cell and 0.8 ± 0.2*^p=0.001 neurite/cell | 39.6 ± 6.3 μm and 39.6 ± 6.3*^p=0.001 μm |  |  |  |  |  | increase of AChE activity compared to the control (AChE [1]; 250 μM H2O2 alone, 24 h): 1.45 fold; average cell viability ((d)-SH-SY5Y cells [2]; 250 µM H2O2 alone, 24 h, compared to the control group): 57.8 ± 5% |
| CC[C@@H]1/C=C(\C)C[C@H](C)C[C@H](OC)[C@H]2O[C@@](O)(C(=O)C(=O)N3CCCC[C@H]3C(=O)O[C@H](/C(C)=C/[C@@H]3CC[C@H](Cl)[C@H](OC)C3)[C@H](C)[C@@H](O)CC1=O)[C@H](C)C[C@@H]2OC [Pim, Pimecrolimus] | significantly attenuated this increase | significantly reduced AChE mRNA levels | 1.1 ± 0.3 neurite/cell | 39.8 ± 5.7 μm | 2.15 ± 0.1 |  |  |  |  | protective effect on cell viability against H2O2 ((d)-SH-SY5Y cells [2]; 1 µM drug + 250 µM H2O2, 24 h): best protected cell viability; cytotoxicity of drug alone ((d)-SH-SY5Y cells [5]): did not show detectable cytotoxicity |
| C=CC[C@@H]1/C=C(\C)C[C@H](C)C[C@H](OC)[C@H]2O[C@@](O)(C(=O)C(=O)N3CCCC[C@H]3C(=O)O[C@H](/C(C)=C/[C@@H]3CC[C@@H](O)[C@H](OC)C3)[C@H](C)[C@@H](O)CC1=O)[C@H](C)C[C@@H]2OC [Tac, Tacrolimus] | did not significantly modulate caspase-3 expression | significantly reduced AChE mRNA levels | 1.2 ± 0.1 neurite/cell | 34.5 ± 3.5 μm | 4.24 ± 0.1 | not statistically significant | significantly reduced cell viability | 55.2 ± 2.5 | 50.1 ± 2 |  |
| C=C/C=C/C[C@@H](C)[C@@H](O)[C@H]1C(=O)N[C@@H](CC)C(=O)N(C)CC(=O)N(C)[C@@H](CC(C)C)C(=O)N[C@@H](C(C)C)C(=O)N(C)[C@@H](CC(C)C)C(=O)N[C@@H](C)C(=O)N[C@H](C)C(=O)N(C)[C@@H](CC(C)C)C(=O)N(C)[C@@H](CC(C)C)C(=O)N(C)[C@@H](C(C)C)C(=O)N1C [Voc, Voclosporin] | significantly attenuated this increase | significantly reduced AChE mRNA levels | 1.3 ± 0.3^#p=0.02 neurite/cell | 45.4 ± 5.5^#p=0.04 μm |  | significantly increasing cell viability compared to the H2O2-only group | further decrease in cell viability; also recorded: significantly reduced cell viability | 75.5 ± 4.8 | 62.1 ± 3.6 | AChE activity (AChE [1]; 0.1 μM drug + 250 μM H2O2, 24 h): 96.3 ± 2.3%; AChE inhibitory effect compared to galantamine (AChE [4]; 0.01 µM): higher AChE inhibitory effect compared to galantamine; IC50 (AChE [4]; read-out: IC50 against AChE, recombinant human AChE, Ellman method, 0.01–10 µM, four-parameter fit): 0.004 ± 0.0002 µM |
